US20200347043A1, “MODULATORS OF THE INTEGRATED STRESS PATHWAY” (Calico Life Sciences LLC, priority 2019, published 2020)

system: HEK293T cells carrying the ATF4 luciferase reporter; assay: ATF4-Luc assay (in vitro model of VWMD); type: cell-based, human; details: Homo sapiens, HEK-293T, 1 μg/mL tunicamycin, 7 hours, One Glo luminescence
Description: In order to test exemplary compounds of the invention in a cellular context, a stable VWMD cell line was first constructed. The ATF4 reporter was prepared by fusing the human full-length ATF4 5′-UTR (NCBI Accession No. BC022088.2) in front of the firefly luciferase (FLuc) coding sequence lacking the initiator methionine as described in Sidrauski et al (eLife 2013). The construct was used to produce recombinant retroviruses using standard methods and the resulting viral supernatant was used to transduce HEK293T cells, which were then subsequently selected with puromycin to generate a stable cell line.
HEK293T cells carrying the ATF4 luciferase reporter were plated on polylysine coated 384-well plates (Greiner Bio-one) at 30,000 cells per well. Cells were treated the next day with 1 μg/mL tunicamycin and 200 nM of a compound of Formula (I) for 7 hours. Luminescence was measured using One Glo (Promega) as specified by the manufacturer. Cells were maintained in DMEM with L-glutamine supplemented with 10% heat-inactivated FBS (Gibco) and Antibiotic-Antimycotic solution (Gibco).
Table 4 below summarizes the EC50 data obtained using the ATF4-Luc assay for exemplary compounds of the invention.

Compound	EC50 [nM]
O=C(CO[C@H]1C[C@@H](OC(F)(F)F)C1)NC12CCC(NC(=O)COc3ccc(Cl)c(F)c3)(CC1)[C@@H](O)C2 [Compound 112, 2-(4-chloro-3-fluorophenoxy)-N-[(2S)-2-hydroxy-4-(2-{[(1s,3R)-3-(trifluoromethoxy)cyclobutyl]oxy}acetamido)bicyclo[2.2.2]octan-1-yl]acetamide]	< 10
O=C(CO[C@H]1C[C@@H](OC(F)(F)F)C1)NC12CC(NC(=O)C3CC(=O)c4cc(Cl)ccc4O3)(C1)C2 (stereo partly shown) [Compound 113, 6-chloro-4-oxo-N-[3-(2-{[(1s,3s)-3-(trifluoromethoxy)cyclobutyl]oxy}acetamido)bicyclo[1.1.1]pentan-1-yl]-3,4-dihydro-2H-1-benzopyran-2-carboxamide]	10 to 50
O=C(CO[C@H]1C[C@@H](OC(F)(F)F)C1)NC12CCC(NC(=O)[C@H]3CC(=O)c4cc(Cl)ccc4O3)(CC1)C[C@@H]2O [Compound 115, (2R)-6-chloro-N-[(3S)-3-hydroxy-4-(2-{[(1s,3R)-3-(trifluoromethoxy)cyclobutyl]oxy}acetamido)bicyclo[2.2.2]octan-1-yl]-4-oxo-3,4-dihydro-2H-1-benzopyran-2-carboxamide]	< 10
O=C(COc1ccc(Cl)cc1)NC12CCC(NC(=O)CO[C@H]3C[C@@H](OC(F)(F)F)C3)(CC1)CC2 [Compound 116, 2-(4-chlorophenoxy)-N-[4-(2-{[(1s,3s)-3-(trifluoromethoxy)cyclobutyl]oxy}acetamido)bicyclo[2.2.2]octan-1-yl]acetamide]	< 10
O=C(CO[C@H]1C[C@@H](OC(F)(F)F)C1)NC12CCC(NC(=O)[C@H]3C[C@@H](O)c4cc(Cl)ccc4O3)(CC1)C[C@@H]2O [Compound 117, (2R,4R)-6-chloro-4-hydroxy-N-[(3S)-3-hydroxy-4-(2-{[(1s,3R)-3-(trifluoromethoxy)cyclobutyl]oxy}acetamido)bicyclo[2.2.2]octan-1-yl]-3,4-dihydro-2H-1-benzopyran-2-carboxamide]	< 10
O=C(COc1ccc(Cl)c(F)c1)NC12CC(NC(=O)[C@H]3C[C@@H](OC(F)(F)F)C3)(C1)C2 [Compound 118, (1s,3s)-N-{3-[2-(4-chloro-3-fluorophenoxy)acetamido]bicyclo[1.1.1]pentan-1-yl}-3-(trifluoromethoxy)cyclobutane-1-carboxamide]	500 to 2000
O=C(NC12CC(C(=O)NCc3ccc(C(F)(F)F)cn3)(C1)C2)[C@H]1C[C@@H](O)c2cc(Cl)ccc2O1 [Compound 119, (2R,4R)-6-chloro-4-hydroxy-N-[3-({[5-(trifluoromethyl)pyridin-2-yl]methyl}carbamoyl)bicyclo[1.1.1]pentan-1-yl]-3,4-dihydro-2H-1-benzopyran-2-carboxamide]	10 to 50
O=C(COc1ccc(Cl)c(F)c1)N[C@@H]1CC[C@@H](C(=O)N2CC(Oc3ccc(Cl)cc3)C2)OC1 [Compound 120, 2-(4-chloro-3-fluorophenoxy)-N-{(3R,6S)-6-[3-(4-chlorophenoxy)azetidine-1-carbonyl]oxan-3-yl}acetamide]	10 to 50
O=C(COc1ccc(Cl)c(F)c1)NC12CCC(c3nnc([C@H]4C[C@@H](OC(F)(F)F)C4)o3)(CC1)CC2O (stereo partly shown) [Compound 124, 2-(4-chloro-3-fluorophenoxy)-N-(2-hydroxy-4-{5-[(1s,3s)-3-(trifluoromethoxy)cyclobutyl]-1,3,4-oxadiazol-2-yl}bicyclo[2.2.2]octan-1-yl)acetamide]	10 to 50
O=C(N[C@H]1C[C@H]2CC[C@@H](C1)N2CCCOc1ccc(Cl)cc1)[C@H]1C[C@@H](O)c2cc(Cl)ccc2O1 [Compound 125, (2R,4R)-6-chloro-N-{(1R,3r,5S)-8-[3-(4-chlorophenoxy)propyl]-8-azabicyclo[3.2.1]octan-3-yl}-4-hydroxy-3,4-dihydro-2H-1-benzopyran-2-carboxamide]	50 to 250
O=C(NC12CC(C(=O)NCc3nc4cc(F)c(F)cc4[nH]3)(C1)C2)[C@H]1C[C@@H](O)c2cc(Cl)ccc2O1 [Compound 127, (2R,4R)-6-chloro-N-(3-{[(5,6-difluoro-1H-benzimidazol-2-yl)methyl]carbamoyl}bicyclo[1.1.1]pentan-1-yl)-4-hydroxy-3,4-dihydro-2H-1-benzopyran-2-carboxamide]	10 to 50
O=C(NC12CC(NC(=O)[C@H]3C[C@@H](OC(F)(F)F)C3)(C1)C2)[C@H]1C[C@@H](O)c2cc(Cl)ccc2O1 [Compound 128, (2R,4R)-6-chloro-4-hydroxy-N-(3-{[(1s,3S)-3-(trifluoromethoxy)cyclobutane-1-carbonyl]amino}bicyclo[1.1.1]pentan-1-yl)-3,4-dihydro-2H-1-benzopyran-2-carboxamide]	500 to 2000
O=C(COc1ccc(Cl)c(F)c1)NC12CC(C(=O)NCC3CCc4cc(Cl)ccc4O3)(C1)C2 (stereo not shown) [Compound 129, N-[(6-chloro-3,4-dihydro-2H-1-benzopyran-2-yl)methyl]-3-[2-(4-chloro-3-fluorophenoxy)acetamido]bicyclo[1.1.1]pentane-1-carboxamide]	10 to 50
O=C(COc1ccc(Cl)c(F)c1)N[C@H]1CC[C@H](NC(=O)C2CC(=O)c3cc(Cl)ccc3O2)CC1 (stereo partly shown) [Compound 130, 6-chloro-N-{(1r,4r)-4-[2-(4-chloro-3-fluorophenoxy)acetamido]cyclohexyl}-4-oxo-3,4-dihydro-2H-1-benzopyran-2-carboxamide]	250 to 500
O=C1C[C@H](C(=O)NC23CC(C(=O)NCc4ccc(C(F)(F)F)cn4)(C2)C3)Oc2ccc(Cl)cc21 [Compound 132, (2R)-6-chloro-4-oxo-N-[3-({[5-(trifluoromethyl)pyridin-2-yl]methyl}carbamoyl)bicyclo[1.1.1]pentan-1-yl]-3,4-dihydro-2H-1-benzopyran-2-carboxamide]	50 to 250
O=C1CC(C(=O)NC23CC(C(=O)NCc4ccc(C(F)(F)F)cn4)(C2)C3)Oc2ccc(Cl)cc21 (stereo not shown) [Compound 134, 6-chloro-4-oxo-N-[3-({[5-(trifluoromethyl)pyridin-2-yl]methyl}carbamoyl)bicyclo[1.1.1]pentan-1-yl]-3,4-dihydro-2H-1-benzopyran-2-carboxamide]	250 to 500
O=C1C[C@H](C(=O)NC23CC(C(=O)NCc4nc5cc(F)c(F)cc5[nH]4)(C2)C3)Oc2ccc(Cl)cc21 [Compound 135, (2R)-6-chloro-N-(3-{[(5,6-difluoro-1H-benzimidazol-2-yl)methyl]carbamoyl}bicyclo[1.1.1]pentan-1-yl)-4-oxo-3,4-dihydro-2H-1-benzopyran-2-carboxamide]	50 to 250
O=C1CC(C(=O)N[C@@H]2CC[C@@H](C(=O)NCc3ccc(C(F)(F)F)cc3)OC2)Oc2ccc(Cl)cc21 (stereo partly drawn) [Compound 137, 6-chloro-4-oxo-N-[(3R,6S)-6-({[4-(trifluoromethyl)phenyl]methyl}carbamoyl)oxan-3-yl]-3,4-dihydro-2H-1-benzopyran-2-carboxamide]	50 to 250
O=C1CC(C(=O)N[C@H]2CC[C@H](C(=O)NCc3nc4ccc(Cl)cc4[nH]3)CC2)Oc2ccc(Cl)cc21 (stereo partly shown) [Compound 138, 6-chloro-N-[(1r,4r)-4-{[(6-chloro-1H-benzimidazol-2-yl)methyl]carbamoyl}cyclohexyl]-4-oxo-3,4-dihydro-2H-1-benzopyran-2-carboxamide]	50 to 250
O=C1CC(C(=O)N[C@@H]2CC[C@@H](C(=O)N3CC(Oc4ccc(Cl)cc4)C3)OC2)Oc2ccc(Cl)cc21 (stereo partly drawn) [Compound 139, 6-chloro-N-{(3R,6S)-6-[3-(4-chlorophenoxy)azetidine-1-carbonyl]oxan-3-yl}-4-oxo-3,4-dihydro-2H-1-benzopyran-2-carboxamide]	500 to 2000
O=C1CC(C(=O)N[C@@H]2CC[C@@H](C(=O)NCc3cn4ccc(Cl)cc4n3)OC2)Oc2ccc(Cl)cc21 (stereo partly drawn) [Compound 140, 6-chloro-N-[(3R,6S)-6-{[(7-chloroimidazo[1,2-a]pyridin-2-yl)methyl]carbamoyl}oxan-3-yl]-4-oxo-3,4-dihydro-2H-1-benzopyran-2-carboxamide]	50 to 250
O=C(COc1ccc(Cl)c(F)c1)N[C@H]1CC[C@H](NC(=O)C2CC(O)c3cc(Cl)ccc3O2)CC1 (stereo partly shown) [Compound 141, 6-chloro-N-{(1r,4r)-4-[2-(4-chloro-3-fluorophenoxy)acetamido]cyclohexyl}-4-hydroxy-3,4-dihydro-2H-1-benzopyran-2-carboxamide]	10 to 50
Cc1cc(C)cc(OCC2CN(C34CC(NC(=O)[C@H]5C[C@@H](O)c6cc(Cl)ccc6O5)(C3)C4)C(=O)O2)c1 (stereo partly drawn) [Compound 142, (2R,4R)-6-chloro-N-(3-{5-[(3,5-dimethylphenoxy)methyl]-2-oxo-1,3-oxazolidin-3-yl}bicyclo[1.1.1]pentan-1-yl)-4-hydroxy-3,4-dihydro-2H-1-benzopyran-2-carboxamide]	> 2000
O=C(NC1CC2(C1)CN(C(=O)COc1ccc(Cl)c(F)c1)C2)[C@H]1C[C@@H](O)c2cc(Cl)ccc2O1 [Compound 143, (2R,4R)-6-chloro-N-{2-[(4-chloro-3-fluorophenoxy)acetyl]-2-azaspiro[3.3]heptan-6-yl}-4-hydroxy-3,4-dihydro-2H-1-benzopyran-2-carboxamide]	50 to 250
O=C(COc1ccc(Cl)c(F)c1)NC1CC2(C1)CN(C(=O)C1CC(=O)c3cc(Cl)ccc3O1)C2 (stereo not shown) [Compound 144, 2-(4-chloro-3-fluorophenoxy)-N-[2-(6-chloro-4-oxo-3,4-dihydro-2H-1-benzopyran-2-carbonyl)-2-azaspiro[3.3]heptan-6-yl]acetamide]	50 to 250
